# Assay results published in patent US20160256510A1, “PALIURUS RAMOSISSIMUS (LOUR.) POIR EXTRACT AND PREPARATION METHOD AND USES THEREOF” (priority 2013, published 2016).
# Marks after values point to notes of the source that are not given here.
# What was measured:
# transplanted tumor S 180 = settings: control group (positive control cyclophosphamide 85 mg/kg daily)
# Procedure: Take Kunming mice, subcutaneously inject 0.2 ml of S180 suspension (about 1×10^6 tumor cells) in a routine way at the right anterior lobe. 24 hours after injection, mice are randomly grouped and numbered. There are 10 mice in the control groups, and 10 mice each in test groups of high dose, middle dose, and low dose. Mice in each group receive drugs via intragastric administration once a day for a total of 14 times. In positive control group, cyclophosphamide (85 mg/kg) is given daily, and the dose, frequency, time are identical with the test groups.
# [1] = test system: experimental hepatic fibrosis; assay: Carbon tetrachloride-induced liver fibrosis in rats; format: in vivo, SD rats; settings: 3 months
# Procedure: Take 60 SD rats (200-240 g, male), randomly divide into blank control group (0.5% mucilage tragacanth), model control group (0.5% mucilage tragacanth), positive control group (dexamethasone, 1 mg/kg), Paliurus ramosissimus (Lour) Poir. extract (prepared according to Embodiment 1) low-dose group (0.4 g/kg), Paliurus ramosissimus (Lour) Poir. extract middle-dose group (0.8 g/kg), and Paliurus ramosissimus (Lour) Poir. extract high-dose group (1.6 g/kg) with stratification of body weight. Except the blank control group, rats in other groups receive subcutaneous injection of 1 ml/kg of 40% carbon tetrachloride in vegetable oil solution, 2 times a week for 3 consecutive months, while receiving high-fat diet and 5% ethanol aqueous solution. Test substance is given via intragastric administration once daily for 3 consecutive months. On the next day after drug administration, draw abdominal aortic blood, separate plasma, determine the levels of alanine aminotransferase (ALT), III procollagen (PC-III), hyaluronic acid (HA) and laminin (LH); the sacrifice the animals, and take the liver for pathological examination.
# Take 60 SD rats (200-240 g, male), randomly divide into blank control group, model control group, positive control group (dexamethasone, 1 mg/kg), Paliurus ramosissimus (Lour) Poir. extract group (prepared according to Embodiment 1, 0.8 g/kg), Polyene phosphatidylcholine group, drug combination group (Paliurus ramosissimus (Lour.) Poir. Extract0.8 g/kg+Polyene phosphatidylcholine1 ml/kg) with stratification of body weight. Except the blank control group, rats in other groups receive subcutaneous injection of 1 ml/kg of 40% carbon tetrachloride in vegetable oil solution, 2 times a week for 3 consecutive months, while receiving high-fat diet and 5% ethanol aqueous solution. Test substance is given via intragastric administration once daily for 3 consecutive months. On the next day after drug administration, draw abdominal aortic blood, separate plasma, determine the levels of alanine aminotransferase (ALT), III procollagen (PC-III), hyaluronic acid (HA) and laminin (LH); the sacrifice the animals, and take the liver for pathological examination.
# pulmonary fibrosis = assay: Bleomycin-induced pulmonary fibrosis in rats; format: in vivo, SD rats; settings: lung, 30 days
# Procedure: Take 60 SD rats (200-240 g, male), randomly divide into sham operation control group (0.5% mucilage tragacanth), model control group (0.5% mucilage tragacanth), positive control group (dexamethasone, 1 mg/kg), Paliurus ramosissimus (Lour) Poir. extract (prepared according to Embodiment 1) low-dose group (0.4 g/kg), Paliurus ramosissimus (Lour) Poir. extract middle-dose group (0.8 g/kg), and Paliurus ramosissimus (Lour) Poir. extract high-dose group (1.6 g/kg) with stratification of body weight. All animals receive trachea separation under anesthesia by intraperitoneal injection of 10% chloral hydrate (350 mg/kg). Except the sham operation control group, rats in other groups receive injection of 5 mg/kg of bleomycin in 0.4 ml of normal saline solution, while rats in sham operation control group receive normal saline solution only. From the next day after surgery, test substance is given daily for 30 consecutive days. Sacrifice the animals by cervical dislocation, and take the lungs; some organs are homogenized for hydroxyproline content determination, and some are for pathological examination.
# Take 60 SD rats (200-240 g, male), randomly divide into sham operation control group, model control group, positive control group (dexamethasone, 1 mg/kg), Paliurus ramosissimus (Lour) Poir. extract group (prepared according to Embodiment 1, 0.8 g/kg. op), Ligustrazine (40 mg/kg, ip)and drug combination group (Paliurus ramosissimus (Lour) Poir. Extract 0.8 g/kg, op; Ligustrazine injection40 mg/kg, ip) with stratification of body weight. All animals receive trachea separation under anesthesia by intraperitoneal injection of 10% chloral hydrate (350 mg/kg). Except the sham operation control group, rats in other groups receive injection of 5 mg/kg of bleomycin in 0.4 ml of normal saline solution, while rats in sham operation control group receive normal saline solution only. The next day after the surgery, give the test substance via intragastric administration or injection administration, test substance is given daily for 30 consecutive days. […]
# TNBS induced colitis = assay: TNBS induced experimental colitis in rats; format: in vivo; settings: 2 mg/kg
# Procedure: After the animals are fasted for 24 h, perform anesthesia with sodium pentobarbital. Except the sham operation group, perform coloclysis with TNBS and 40% ethanol, and replicate experimental colitis model; 6 h after model construction, administer test substance. At the day 5 of administration, draw tail vein blood and count leukocyte. At day 6, perform urethane anesthesia, draw abdominal aortic blood and sacrifice the animals by cervical dislocation. Cut 9 cm colon from the anus, in an ice bath, cut intestine along the mesenteric edge, wash out the contents, measure the ulcer area, calculate the percentage of ulcer area; weigh the colon, scrap colonic mucosa, and determine tumor necrosis factor (TNF-α) concentration with ELISA method.
# peritoneal macrophages = assay: Peritoneal macrophage phagocytosis of normal mice; format: in vivo, KM mice; settings: inhibition effect positive control 0.1 g/kg, one subcutaneous injection at day 13
# Procedure: Except that the mice in inhibition effect positive control group receive one dose of subcutaneous injection at day 13, mice in other groups receive test substance or suspension via intragastric administration once a day for 14 consecutive days. At day 13 and 14, apply intraperitoneal injection of 6% starch solution respectively. 1 h after the last administration at day 14, apply intraperitoneal injection of 1 ml of 5% chicken erythrocytes in saline suspension; 30 min later, sacrifice the mice by cervical dislocation, apply intraperitoneal injection of 2 ml saline, and gently massage the abdomen. 1 min later, cut open abdomen, draw 1 ml of peritoneal washings, evenly drop on two slides, place in a wet box, and incubate at 37° C. for 30 min. Rinse in saline, dry, fix with 1:1 acetone-methanol solution, stain with 4% (v/v) Giemsa-PBS for 3 min, rinse with distilled water and dry, perform microscopic examination, and calculate the percentage of phagocytosis.
# S180 = assay: Mice bearing S180, tumor weight and inhibition rate; format: in vivo, Kunming mice
# Procedure: (§1) Choose mice which are in good health conditions and received S180 tumor injection 8 days ago, disinfect abdominal skin, draw ascites, mix with normal saline as ratio of 1:4 (ascites volume:normal saline volume) to make suspension. […] In all groups, subcutaneously inject 0.2 ml of the aforementioned suspension at the right anterior lobe. 2 hours after injection, mice in control group and drug groups receive test substance or suspension via intragastric administration once a day for 14 consecutive days. In positive control group, CTX is administered intraperitoneally once every other day for a total of 7 times.
# as §1, with “intragastric or intravenous” for “intragastric”
# Ehrlich ascites tumor = assay: Mice bearing Ehrlich ascites tumor, survival time and ascites weight; format: in vivo, Kunming mice; settings: 40 mg/kg intraperitoneally every other day, 7 times
# Procedure: Choose mice which are in good health conditions and received Ehrlich ascites tumor injection 8 days ago, disinfect abdominal skin, draw ascites, mix with normal saline to […] for future use. […] In all groups, subcutaneously inject 0.2 ml of the aforementioned suspension at the right anterior lobe. 2 hours after injection, mice in control group and drug groups receive test substance or suspension via intragastric administration once a day, administer continuously until the animal is dying. In positive control group, CTX is administered intraperitoneally once every other day for a total of 7 times. When the animal is dying, sacrifice it by cervical dislocation; the day of dying is calculated as survival time; after death, weigh, exhaust ascites, weigh again, and the difference is the weight of ascites.
# [2] = test system: pylorus ligation induced gastric ulcer; assay: Pylorus ligation induced experimental gastric ulcer in rats; format: in vivo; settings: 60 mg/kg intragastric, 3 days
# From the text: (§2) In all groups, mice receive test substance via intragastric administration once a day for 3 consecutive days.
# as §2
# [3] = Table 11, polyene phosphatidylcholine group (1 ml/kg in the combination)
# [4] = Table 11, dexamethasone 1 mg/kg
# [5] = Table 6, 40 mg/kg intraperitoneally every other day, 7 times
# [6] = Table 8, 40 mg/kg intraperitoneally every other day, 7 times
# [7] = Table 8, 1 ml/kg once a day, 14 days
# [8] = Table 8, 5 mg/kg once a day, 14 days
compound,measurement,setting,value
"O=P1(N(CCCl)CCCl)NCCCO1 (stereo not shown) [Control group, cyclophosphamide]",Tumor inhibition rate,transplanted tumor S 180,38.45 ± 3.62%
Polyene phosphatidylcholine,ALT (U/L),[1]; [3],443 ± 130 U/L
same,HA,[1]; [3],284 ± 78 µg/L
same,LN,[1]; [3],63 ± 18 µg/L
same,PC-III,[1]; [3],27.0 ± 4.8 µg/L
"C[C@@H]1C[C@H]2[C@@H]3CCC4=CC(=O)C=C[C@]4(C)[C@@]3(F)[C@@H](O)C[C@]2(C)[C@@]1(O)C(=O)CO [Positive Control, dexamethasone]",Hydroxyproline content (mg/gpro),"pulmonary fibrosis; Table 10, dexamethasone 1 mg/kg daily",13.6 ± 3.3 mg/gpro
same,Hydroxyproline content (mg/gpro),"pulmonary fibrosis; Table 12, dexamethasone 1 mg/kg daily",13.4 ± 3.7 mg/gpro
same,Ratio of ulcer area (%),"TNBS induced colitis; colon, day 6",28.6 ± 10.5 %
same,TNF-α (ng/gpro),"TNBS induced colitis; colonic mucosa, ELISA",73.2 ± 19.6 ng/gpro
same,Leukocyte count (10^9/L),"TNBS induced colitis; tail vein blood, day 5",8.4 ± 0.9** 10^9/L
same,ALT (U/L),"[1]; Table 9, dexamethasone 1 mg/kg",456 ± 98 U/L
same,HA,"[1]; Table 9, dexamethasone 1 mg/kg",280 ± 54 µg/L
same,LN,"[1]; Table 9, dexamethasone 1 mg/kg",62 ± 20 µg/L
same,PC-III,"[1]; Table 9, dexamethasone 1 mg/kg",20.8 ± 3.1 µg/L
same,ALT (U/L),[1]; [4],478 ± 90 U/L
same,HA,[1]; [4],285 ± 57 µg/L
same,LN,[1]; [4],65 ± 23 µg/L
same,PC-III,[1]; [4],20.6 ± 3.8 µg/L
Cc1nc(C)c(C)nc1C [Ligustrazine],Hydroxyproline content (mg/gpro),"pulmonary fibrosis; Table 12, 40 mg/kg ip daily",14.6 ± 5.7 mg/gpro
"O=P1(N(CCCl)CCCl)NCCCO1 (stereo not shown) [ctx, cyclophosphamide]",Percentage of phagocytosis,peritoneal macrophages,0.12 ± 0.03
same,Tumor inhibition rate (%),S180; [5],70.8%
same,Tumor weight,S180; [5],0.35 ± 0.58 g
same,Tumor inhibition rate (%),S180; [6],63.1%
same,Tumor weight,S180; [6],0.48 ± 0.41 g
same,Survival time,Ehrlich ascites tumor,17.2 ± 2.3 days
same,Weight of ascites,Ehrlich ascites tumor,15.9 ± 1.5
CNC(=C[N+](=O)[O-])NCCSCc1ccc(CN(C)C)o1 [ranitidine],Ulcer index,[2]; Table 19,1.5 ± 0.4
same,Inhibition rate (%),"[2]; Table 19, ulcer",68.1%
same,Ulcer index,[2]; Table 22,1.8 ± 0.6
same,Ulcer inhibition rate (%),[2]; Table 22,60.0%
"CC(=O)O[C@H]1[C@H]2O[C@]23[C@@H]2CC[C@]4(O)C[C@@H](O)CC[C@]4(C)[C@H]2CC[C@]3(C)[C@H]1c1ccc(=O)oc1 [Cinobufotalin, cinobufotalin]",Tumor inhibition rate (%),S180; [7],43.8%
same,Tumor weight,S180; [7],0.73 ± 0.42 g
"CC(=O)O[C@H]1C(=O)[C@@]2(C)[C@H]([C@H](OC(=O)c3ccccc3)[C@]3(O)C[C@H](OC(=O)[C@H](O)[C@@H](NC(=O)c4ccccc4)c4ccccc4)C(C)=C1C3(C)C)[C@]1(OC(C)=O)CO[C@@H]1C[C@@H]2O [Paclitaxel, paclitaxel]",Tumor inhibition rate (%),S180; [8],34.6%
same,Tumor weight,S180; [8],0.85 ± 0.38 g
